Test systems include EKVX; NCI-H226; UACC-257; SF-295; A549; NCI-H460; 786-0; UO-31; SW-620; OVCAR-8; CCRF-CEM; Malme-3M; U-251; COLO 205; OVCAR-4; HOP-62; SR.
Assay in all cases: NCI-60 cell line screen, 48 h

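Five concentrations, 48 hours, 96-well plates. GI50 marks 50% less growth.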 Activity calls are given as the source filed them. Rule as the data show it: active = GI50 up to about 1.1 µM and inactive = higher.

For the compound `COC(=O)c1c(-c2ccccc2)sc(-c2cccc3ccccc23)c1C(=O)OC`, the GI50 in the assay on EKVX, in the assay on NCI-H226, in the assay with UACC-257, in the assay with SF-295, in the assay on A549 and with NCI-H460 was > 100 µM (inactive) in each case. The GI50 in the assay with 786-0 is > 100 µM (inactive); with UO-31, 58.2 µM (inactive); with SW-620, > 100 µM (inactive); with OVCAR-8 it was > 100 µM (inactive); in the assay with CCRF-CEM it was > 100 µM (inactive); with Malme-3M it was 21.9 µM (inactive). Also, the GI50 with U-251 is > 100 µM (inactive); in the assay with COLO 205, > 100 µM (inactive); in the assay with OVCAR-4 it was 84.7 µM (inactive).

In the case of `COC1=CC(=O)C2C(C1=O)[C@@H]1c3ccccc3OC(C)(C)[C@H]21` (stereo not given in full), the GI50 is 31.9 µM (inactive) in the assay on EKVX; 19.1 µM (inactive) in the assay on NCI-H226; 29.2 µM (inactive) in the assay with UACC-257; 71 µM (inactive) with SF-295; 70 µM (inactive) in the assay on A549; 60.5 µM (inactive) with NCI-H460. Also, the GI50 was 19.1 µM (inactive) in the assay on 786-0; > 100 µM (inactive) in the assay on HOP-62; 15.2 µM (inactive) with UO-31; 23.6 µM (inactive) with SW-620; 21.7 µM (inactive) in the assay with OVCAR-8; 23.1 µM (inactive) in the assay on CCRF-CEM. In addition, the GI50 in the assay on Malme-3M was 18.9 µM (inactive); with U-251, 53.2 µM (inactive); in the assay on COLO 205 it was 19.2 µM (inactive); in the assay on OVCAR-4, 17.9 µM (inactive).

For the compound `NC(=O)C(=Cc1ccc(CP(=O)(O)O)cc1)C(N)=O`, the GI50 in the assay on EKVX, with UACC-257, in the assay with SF-295, with A549, in the assay with NCI-H460 and with 786-0 was > 100 µM (inactive) throughout. Besides, the GI50 in the assay with HOP-62, in the assay on UO-31, in the assay with SW-620, in the assay with OVCAR-8, in the assay with Malme-3M and in the assay on U-251 was > 100 µM (inactive) in each case. Moreover, the GI50 in the assay on COLO 205 and in the assay on OVCAR-4 was > 100 µM (inactive) in each case.

Consider `O=C(CC1C(=O)Nc2ccccc2S1(=O)=O)Nc1cccc(Cl)c1` (stereo not given), for which the GI50 is 17.2 µM (inactive) with EKVX; 18.2 µM (inactive) in the assay with SR; 17.3 µM (inactive) with NCI-H226; 19.8 µM (inactive) in the assay with UACC-257; 24.7 µM (inactive) with SF-295; 20 µM (inactive) with A549. The GI50 in the assay with NCI-H460 was 16.7 µM (inactive); in the assay on 786-0 it was 14.1 µM (inactive); in the assay with UO-31, 16.6 µM (inactive); in the assay on SW-620, 17.7 µM (inactive); with OVCAR-8, 17.8 µM (inactive); in the assay on CCRF-CEM, 22.3 µM (inactive). Also, the GI50 with Malme-3M is 23.7 µM (inactive); in the assay with U-251 it was 13.6 µM (inactive); in the assay with OVCAR-4 it was 20.1 µM (inactive).

In the case of `Cc1c(N2CCOCC2)nc2ccc(Cl)cc2c1-c1ccccc1`, the GI50 was 91.8 µM (inactive) in the assay on EKVX; 34.4 µM (inactive) in the assay with SR; > 100 µM (inactive) in the assay with UACC-257; > 100 µM (inactive) with SF-295; 43.8 µM (inactive) in the assay on A549; 58.3 µM (inactive) in the assay on NCI-H460. For the same compound, the GI50 in the assay on 786-0 was 95.9 µM (inactive); in the assay with HOP-62, > 100 µM (inactive); in the assay with UO-31 it was > 100 µM (inactive); in the assay on SW-620, 66.2 µM (inactive); with OVCAR-8, > 100 µM (inactive); in the assay with CCRF-CEM, 26.7 µM (inactive). In addition, the GI50 with Malme-3M was 60.5 µM (inactive); with U-251, 89.9 µM (inactive); in the assay with COLO 205 it was > 100 µM (inactive); in the assay with OVCAR-4, 50.7 µM (inactive).

For `Cc1cc2c(=O)c3ccc(Cl)cc3[nH]c2c(C(N)=O)c1C`, the GI50 with EKVX, in the assay on UACC-257, with SF-295, in the assay on A549, with NCI-H460 and in the assay on 786-0 was > 100 µM (inactive) in each case. Further, the GI50 with HOP-62, in the assay on UO-31, in the assay with SW-620, with OVCAR-8, in the assay with CCRF-CEM and in the assay with Malme-3M was > 100 µM (inactive) throughout. The GI50 in the assay with U-251, in the assay with COLO 205 and in the assay with OVCAR-4 was > 100 µM (inactive) in each case.

Take `COC(=O)/C(C#N)=C(\N)C(Cl)(Cl)Cl`: the GI50 with EKVX was 4.68 µM (inactive); with SR, 0.449 µM (active); in the assay on UACC-257, 3.08 µM (inactive); with SF-295, 5.09 µM (inactive); in the assay with A549 it was 3.33 µM (inactive); in the assay on NCI-H460, 4.33 µM (inactive). Further, the GI50 in the assay with 786-0 is 4.11 µM (inactive); in the assay with HOP-62, 16.1 µM (inactive); in the assay on UO-31 it was 27.1 µM (inactive); in the assay on SW-620, 0.456 µM (active); in the assay with OVCAR-8, 2.15 µM (inactive); in the assay on CCRF-CEM, 0.338 µM (active). Besides, the GI50 in the assay on U-251 is 16.5 µM (inactive); with COLO 205 it was 2.32 µM (inactive); in the assay with OVCAR-4, 2.67 µM (inactive).

As to `CCCN1CN(C(C(=O)N[C@@H]2C(=O)N3C2SC(C)(C)C3C(=O)O)c2ccccc2)CSC1=S` (stereo not given in full), the GI50 in the assay on EKVX, in the assay with UACC-257, with SF-295, in the assay on A549, with NCI-H460 and with 786-0 was > 100 µM (inactive) each time. The GI50 in the assay on HOP-62 is > 100 µM (inactive); with UO-31 it was > 100 µM (inactive); in the assay with SW-620, 16.4 µM (inactive); in the assay with OVCAR-8, > 100 µM (inactive); with CCRF-CEM it was 95.9 µM (inactive); in the assay with Malme-3M it was > 100 µM (inactive). The figures for the GI50 with U-251, with COLO 205 and in the assay on OVCAR-4 were > 100 µM (inactive), 23.6 µM (inactive) and > 100 µM (inactive), respectively.

As to `NC(CCSC(F)F)C(=O)O` (stereo not given), the GI50 in the assay on EKVX, with SR, in the assay on NCI-H226, in the assay with SF-295, in the assay on A549 and in the assay on NCI-H460 was > 100 µM (inactive) throughout. In addition, the GI50 in the assay on 786-0, in the assay on HOP-62, with UO-31, in the assay with SW-620, in the assay on OVCAR-8 and with CCRF-CEM was > 100 µM (inactive) each time. Besides, the GI50 in the assay with Malme-3M is > 100 µM (inactive); in the assay on U-251, > 100 µM (inactive); with COLO 205 it was 92.3 µM (inactive); with OVCAR-4, > 100 µM (inactive).

For the compound `CCOc1ccc(/C=C/C(=O)c2sc(NNC(C)=O)nc2C)cc1`, the GI50 in the assay on EKVX is 85.1 µM (inactive); in the assay on UACC-257, > 100 µM (inactive); in the assay with SF-295 it was > 100 µM (inactive); in the assay with A549, > 100 µM (inactive); in the assay on NCI-H460, > 100 µM (inactive); with 786-0, > 100 µM (inactive). Moreover, the GI50 in the assay with HOP-62, in the assay on UO-31, in the assay with SW-620, in the assay with OVCAR-8, with CCRF-CEM and in the assay with Malme-3M was > 100 µM (inactive) in each case. Besides, the GI50 in the assay with U-251 and with COLO 205 was > 100 µM (inactive) each time.

In the case of `COc1nc2nccc-2c2occn12`, the GI50 in the assay with EKVX, with UACC-257, in the assay on SF-295, in the assay on A549, with NCI-H460 and in the assay on 786-0 was > 100 µM (inactive) throughout. In addition, the GI50 with HOP-62, in the assay on UO-31, with SW-620, with OVCAR-8, with Malme-3M and with U-251 was > 100 µM (inactive) throughout. Further, the GI50 in the assay with COLO 205 and in the assay on OVCAR-4 was > 100 µM (inactive) each time.

As to `CCOC(=O)N[C@@H]1C(CC(=O)OC)O[C@H]2OC(C)(C)O[C@H]21` (stereo not given in full), the GI50 in the assay on NCI-H226, in the assay with UACC-257, in the assay on SF-295, in the assay on A549, in the assay on NCI-H460 and in the assay on 786-0 was > 100 µM (inactive) throughout. In addition, the GI50 in the assay on HOP-62, with UO-31, in the assay on SW-620, with CCRF-CEM, in the assay with Malme-3M and with U-251 was > 100 µM (inactive) in each case. Moreover, the GI50 in the assay with COLO 205 and in the assay with OVCAR-4 was > 100 µM (inactive) in each case.

Consider `COc1ccc2cc3[n+](cc2c1O)CCc1cc2c(cc1-3)OCO2` [BERBERRUBINE CHLORIDE], for which the GI50 was > 100 µM (inactive) in the assay with EKVX; > 100 µM (inactive) with NCI-H226; > 100 µM (inactive) in the assay on UACC-257; > 100 µM (inactive) in the assay on SF-295; 96.6 µM (inactive) in the assay on A549; 54 µM (inactive) in the assay with NCI-H460. Moreover, the GI50 with 786-0 is > 100 µM (inactive); in the assay on HOP-62, > 100 µM (inactive); in the assay on UO-31 it was > 100 µM (inactive); in the assay with SW-620, 92.9 µM (inactive); in the assay on OVCAR-8 it was > 100 µM (inactive); with CCRF-CEM, 80.7 µM (inactive). Further, the GI50 in the assay on Malme-3M, in the assay on U-251, in the assay on COLO 205 and with OVCAR-4 was > 100 µM (inactive) throughout.

For the origin of these results see ChEMBL document CHEMBL1201862, “PubChem BioAssay data set” (2004).
